Laboratory results published in ChEMBL document CHEMBL1136419, “Homologues and isomers of noladin ether, a putative novel endocannabinoid: interaction with rat cannabinoid CB(1) receptors” (Bioorg Med Chem Lett, 2003).

What was measured:
Type in all cases: cell membranes
[1] = biological target: Cannabinoid receptor 1 (Rattus norvegicus) (UniProt P20272); assay: Binding affinity towards CB1 receptor in rat brain membrane by displacement of [3H]SR-141,716A relative to HU-210
Cannabinoid receptor 1 [2] = biological target: T1, Cannabinoid receptor 1 (Rattus norvegicus, UniProt P20272); assay: Binding affinity towards cannabinoid CB1 receptor in rat brain membrane by displacement of [3H]SR-141,716A
Cannabinoid receptor 1 [3] = biological target: T1, Cannabinoid receptor 1; assay: Binding affinity towards cannabinoid CB1 receptor in rat brain membrane by displacement of [3H]SR-141,716A at 50 uM

Chain of Cannabinoid receptor 1 (Rattus norvegicus) (P20272 whole entry): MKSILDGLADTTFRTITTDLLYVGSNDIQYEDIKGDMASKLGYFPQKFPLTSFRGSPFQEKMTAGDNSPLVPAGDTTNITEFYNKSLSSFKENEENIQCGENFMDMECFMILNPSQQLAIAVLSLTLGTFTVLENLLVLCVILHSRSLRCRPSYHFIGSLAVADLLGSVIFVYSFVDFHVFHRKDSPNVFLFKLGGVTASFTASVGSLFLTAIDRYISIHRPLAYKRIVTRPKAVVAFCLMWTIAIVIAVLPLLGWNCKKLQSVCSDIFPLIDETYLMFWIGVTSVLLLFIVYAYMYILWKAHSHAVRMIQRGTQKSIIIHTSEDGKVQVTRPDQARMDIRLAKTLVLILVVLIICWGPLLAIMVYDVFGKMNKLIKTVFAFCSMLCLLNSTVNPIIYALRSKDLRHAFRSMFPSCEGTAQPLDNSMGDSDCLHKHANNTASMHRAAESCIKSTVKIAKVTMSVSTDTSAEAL
T1 sequence (P20272 whole entry): as above

Row | SMILES | Krel [1] | Ki (Cannabinoid receptor 1 [2]) [µM] | Ki (Cannabinoid receptor 1 [3]) [µM]
1 | CCCCC/C=C\C/C=C\C/C=C\C/C=C\CCCCOCC(O)CO (stereo in doubt; 5a) [listing 1 of 2 here] | 1250 |  | 
2 | CCCCCCCC[C@@H]1C[C@@H]1CCCCCCCCOC(CO)CO | > 125000 | > 50 | 
3 | CCCCCCCC/C=C\CCCCCCCCCCCCOC(CO)CO | > 12500 |  | > 50
4 | CCCCCCCCCCCCCCCCOCC(O)CO (centres undefined) | > 12500 | > 50 | 
5 | CCCCCC[C@@H]1C[C@@H]1C#CCCCCCCCCOC(CO)CO | > 125000 | > 50 | 
6 | CCCCC/C=C\C/C=C\CCCCCCCCOC(CO)CO | 5620 | 22.5 | 
7 | CC(C)=CCC/C(C)=C/CC/C(C)=C/COC(CO)CO | > 12500 | > 50 | 
8 | CCCCCCCC/C=C\CCCCCCCCOC(CO)CO | 6400 | 25.6 | 
9 | CC(C)=CCC/C(C)=C/COC(CO)CO | > 12500 | > 50 | 
10 | CCCCCC/C=C/C#CCCCCCCCCOC(CO)CO | > 125000 |  | > 50
11 | CCCCCCCCCCCCCCCCOC(CO)CO | > 12500 | > 50 | 
12 | CC(C)=CCC/C(C)=C/COCC(O)CO (centres undefined) | > 12500 | > 50 | 
13 | CCCCCCCC[C@@H]1C[C@@H]1CCCCCCCCCCCCOC(CO)CO (single isomer, unassigned) | > 125000 | > 50 | 
14 | CCCCC/C=C\C/C=C\C/C=C\C/C=C\CCCCOCC(O)CO (stereo in doubt; 5a) [listing 2 of 2 here] |  | 5 | 
15 | CCCCC/C=C\C/C=C\C/C=C\CCCCCOC(CO)CO | 3480 | 13.9 | 
16 | CCCCC/C=C\C/C=C\C/C=C\C/C=C\CCCCOCC(O)CO (stereo in doubt; 5b) | 625 |  | 
